Reference: patent publication US20250213478A1, “CATIONIC LIPID HAVING DISULFIDE BOND, LIPID MEMBRANE STRUCTURE INCLUDING SAME, NUCLEIC ACID INTRODUCTION AGENT AND PHARMACEUTICAL COMPOSITION CONTAINING ANY ONE OF SAME, METHOD FOR INTRODUCING NUCLEIC ACID INTO CELL OR TARGET CELL, AND METHOD FOR PRODUCING CELLULAR PHARMACEUTICAL” (NOF Corporation, priority 2022, published 2025)

Legend:
[1] = tested on: BALB/c mouse; experiment: Evaluation of in vivo gene expression (luciferase mRNA-encapsulating LNP, IVIS of isolated organs)
Method: (§1) LNP encapsulating mRNA that expresses luciferase (cationic lipid:DOPC:Chol:DMG-PEG2k=55:5:40:1 (molar ratio)) was prepared by the method described in [Experimental Example 2], 1.
The prepared each mRNA-encapsulating LNP dispersion was administered from the tail vein of BALB/c mouse (male, 5-week-old). The dose of mRNA was set to 0.05 mg per 1 kg body weight of the mouse, and the dose of the mRNA-encapsulating LNP dispersion was set to 10 μL per 1 g body weight of the mouse. After 4.5 hr from the administration of the mRNA-encapsulating LNP dispersion, a PBS solution of D-luciferin potassium was administered into the abdominal cavity of the mouse. The dose of D-luciferin potassium was set to 3 mg per mouse, and the dose of the PBS solution of D-luciferin potassium was set to 200 μL per mouse. After 15 min from the administration of the PBS solution of D-luciferin potassium, the mouse was euthanized, and the liver, spleen, kidney, heart, and lung were isolated. The luminescence in each organ was quantified using an in vivo imaging system (IVIS) with an exposure of 10 sec. The amount of luminescence in each organ was quantified by image analysis using Live Imaging software attached to IVIS. The amount of luminescence (photons/sec) was calculated from the acquired image and used as an index of gene expression activity. “E+0a” (a: integer) indicated in Table 7 and Table 8 means “10^a”. For example, “1.0E+02” means “1.0×10^2”. In Comparative Example, the cationic lipid described in the aforementioned Table 3 were used.

[2] = Measurement of Liposomal pKa of LNP (TNS fluorescence); type: physicochemical; conditions: LNP without nucleic acid, cationic lipid:DOPC:Chol=52.5:7.5:40 + about 1.5 mol DMG-PEG2k; pH at which relative TNS fluorescence intensity was 50%
Method: Lipid nanoparticles (LNP) without containing nucleic acid were used for the evaluation of Liposomal pKa.
(§2) A 10 mM ethanol solution of cationic lipid, a 5 mM ethanol solution of DOPC, and a 10 mM ethanol solution of Chol were mixed at desired ratio (cationic lipid:DOPC:Chol=52.5:7.5:40 (molar ratio)) in an Eppendorf tube to achieve the total lipid amount of 720 nmol. To the obtained mixture was further added DMG-PEG2k (2 mM ethanol solution) in an amount of about 1.5 mol with respect to the total amount 100 mol of cationic lipid, DOPC, and Chol, and then ethanol was added to prepare an ethanol solution of the lipid (total amount: 360 μL).
(§3) An acidic malic acid buffer (20 mM, pH 3.0) (1080 μL) containing NaCl at a final concentration of 30 mM and an ethanol solution (360 μL) of lipid were each weighed in a syringe. Using an ultra high-speed nanomedicament producing apparatus NanoAssmblr (manufactured by Precision NanoSystems), LNP was prepared under the conditions of addition rate of acidic buffer solution: 3 mL/min, addition rate of ethanol solution of lipid: 1 mL/min, and syringe holder temperature: 25° C., and collected in a 15 mL tube. MES buffer (pH 6.5) (3000 μL) was added to the 15 mL tube, the obtained mixture was transferred to Amicon Ultra 4, and ultrafiltration was performed under centrifugation conditions (25° C., 1000 g, 6 min) to concentrate the mixture to about 100 μL. The obtained concentrate was diluted with PBS to 4 mL, and the mixture was concentrated again under centrifugation conditions (25° C., 1000 g, 6 min), and this operation was performed twice. The obtained concentrate was diluted with PBS to a lipid concentration of 0.5 mM to give a dispersion containing LNP.
20 mM Citrate buffer, sodium phosphate buffer, and tris HCl buffer, each containing NaCl at a final concentration of 150 mM and adjusted to various pHs within the range of pH 3.0 to 10.0, were prepared. TNS (manufactured by Sigma) was diluted with ultrapure water to 0.6 mM. TNS solution (2 μL), dispersions (12 μL) containing LNP prepared in [Experimental Example 1], 1., and buffers adjusted to various pHs (186 μL) were added to a black 96 well plate. The plate was protected from light and shaken at 400 rpm for 10 min. The fluorescence intensity (excitation: 321 nm/emission: 447 nm) was measured using a plate reader (manufactured by TECAN). The relative fluorescence intensity was calculated as a percentage, with the maximum value of the fluorescence intensity in each LNP being 100% and the minimum value being 0%. Furthermore, the pH at which the relative fluorescence intensity was 50% was taken as Liposomal pKa. In Comparative Example, the cationic lipid described in the aforementioned Table 3 were used.

[3] = Particle size, PdI and zeta potential of mRNA-encapsulating LNPs (dynamic light scattering); type: physicochemical; conditions: mRNA-encapsulating LNP, cationic lipid:DOPC:Chol=55:5:40 + about 1 mol DMG-PEG2k; for PdI / particle size: dynamic light scattering; for zeta potential: physiological pH
Method: as §2, with “lipid:DOPC:Chol=55:5:40” for “lipid:DOPC:Chol=52.5:7.5:40”, “1” for “1.5”
An acidic buffer solution (total amount: 1080 μL) of nucleic acid was prepared by weighing 7.2 μg of mRNA solution (0.6 mg/mL) in a 5 mL tube and adding acidic malate buffer (20 mM, pH 3.0) containing NaCl at a final concentration of 30 mM.
as §3, with “buffer solution of nucleic” for “malic”, “acid” for “acid buffer (20 mM, pH 3.0) (1080 μL) containing NaCl at a final concentration of 30 mM”, “solution” for “solution (360 μL)”, “solution of nucleic acid:” for “solution:”, “2” for “0.5”
The particle size, PdI (Polydispersity Index), and zeta potential of the mRNA-encapsulating LNP prepared by the method of the above-mentioned 1 were measured by a dynamic light scattering method. In Comparative Example, the cationic lipid described in the aforementioned Table 3 were used.

[4] = tested on: HeLa cells; experiment: Evaluation of in vitro gene expression in HeLa cell (luciferase mRNA-encapsulating LNP); type: cell-based, human; conditions: for cumulative luciferase luminescence intensity over 24 hr: luciferase mRNA 0.4 μg per dish, LNP cationic lipid:DOPC:Chol:DMG-PEG2k=55:5:40:1; for gene expression activity compared to Comparative Example: result in words
Method: as §1
HeLa cells, which are human cervical cancer cells, were seeded in a 3.5 cm dish at 5.0×10^4 cells/2 mL/Dish 24 hours before transfection. After 24 hours, the medium was exchanged with a culture medium (D-MEM) containing 0.1 mM D-luciferin. Prepared mRNA-encapsulating LNP was diluted with PBS such that the concentration of mRNA was about 8 μg/mL. The diluted mRNA-encapsulating LNP solution (about 50 μL, mRNA: 0.4 μg) was added to the 3.5 cm dish and set in an incubator luminometer KronosDio. The luminescence intensity of luciferase was measured for 2 min every one hour. The cumulative luciferase luminescence intensity for 24 hr was calculated from the obtained time change of expression. For example, “1.0E+06” means “1.0×10^6”. In Comparative Example, the cationic lipid described in the aforementioned Table 3 were used.

Compound | pKa [2] | PdI [3] | particle size [3] | zeta potential [3] | cumulative luciferase luminescence intensity over 24 hr [4] | other results
CCCCCCCCCCCCCCCCC(CCCCCCCCCCCCCCCC)C(=O)Oc1ccc(CC(=O)NCCSSCCNC(=O)CCCN(C)C)cc1 [Example 20] | 8.8 | – | – | – | – | relative value based on Comparative Example (amount of luminescence in spleen) ([1]; spleen, relative to O-Ph-P4C2 LNP = 1.00): 0.05; amount of luminescence in each organ: heart ([1]; tail vein, mRNA 0.05 mg/kg, 4.5 hr + 15 min after administration, heart): 6.26E+05 photons/sec; amount of luminescence in each organ: kidney ([1]; tail vein, mRNA 0.05 mg/kg, 4.5 hr + 15 min after administration, kidney): 4.34E+05 photons/sec; amount of luminescence in each organ: liver ([1]; tail vein, mRNA 0.05 mg/kg, 4.5 hr + 15 min after administration, liver): 4.95E+05 photons/sec; amount of luminescence in each organ: lung ([1]; tail vein, mRNA 0.05 mg/kg, 4.5 hr + 15 min after administration, lung): 3.68E+05 photons/sec; amount of luminescence in each organ: spleen ([1]; tail vein, mRNA 0.05 mg/kg, 4.5 hr + 15 min after administration, spleen (Table 7)): 5.18E+05 photons/sec
CCCCCCCCCCCCCCCCC(CCCCCCCCCCCCCCCC)C(=O)Oc1ccc(CC(=O)OCCSSCCOC(=O)CCCN(CCC)CCC)cc1 [Example 12] | 6.2 | 0.071 | 84 nm | −4.4 mV | 1.13E+05 RLU | –
CCCCCCCCCCCCCCCCC(CCCCCCCCCCCCCCCC)C(=O)Oc1ccc(CC(=O)OCCSSCCOC(=O)NCCN2CCOCC2)cc1 [Example 26] | 5.7 | – | – | – | 3.29E+05 RLU | –
CCCCCCCCCCC(CCCCCCCCCC)C(=O)Oc1ccc(CC(=O)OCCSSCCOC(=O)CN(C)C)cc1 [Example 2] | 5.7 | 0.072 | 84 nm | −2.9 mV | – | –
CCCCCCCCC(CCCCCC)C(=O)Oc1ccc(CC(=O)OCCSSCCOC(=O)CN(C)C)cc1 (stereo not drawn) [Example 1] | 5.7 | 0.072 | 82 nm | −3.4 mV | – | –
CCCCCCCCCCCCCCCCC(CCCCCCCCCCCCCCCC)C(=O)Oc1ccc(CC(=O)OCCCCSSCCCCOC(=O)CCCN(C)C)cc1 [Example 41] | – | 0.091 | 80 nm | 4.0 mV | – | –
CCCCCCCCCCCCCCCCC(CCCCCCCCCCCCCCCC)C(=O)Oc1ccc(CC(=O)OCCSSCCOC(=O)/C=C/CN(CC)CCO)cc1 [Example 40] | – | 0.104 | 89 nm | 0.1 mV | 2.33E+05 RLU | –

Second part, led by results:

pKa [2] | PdI [3] | particle size [3] | zeta potential [3] | Compound | cumulative luciferase luminescence intensity over 24 hr [4] | other results
– | 0.071 | 67 nm | −4.1 mV | CCCCCCCC/C=C\CCCCCCCC(=O)Oc1ccc(CC(=O)OCCSSCCOC(=O)CN(C)C)cc1OC(=O)CCCCCCC/C=C\CCCCCCCC [Example 14] | – | –
– | 0.128 | 107 nm | −5.3 mV | CCCCCCCCCCCCCCCCC(CCCCCCCCCCCCCCCC)C(=O)Oc1ccc(CC(=O)OCCSSCCOC(=O)/C=C/CN(CC)CC)cc1 [Example 39] | 3.95E+04 RLU | –
– | 0.106 | 106 nm | −3.8 mV | CCCCCCCCCCCCCCCCC(CCCCCCCCCCCCCCCC)C(=O)Oc1ccc(CC(=O)OCCSSCCOC(=O)/C=C/CN(C)C)cc1 [Example 38] | 1.31E+05 RLU | –
7.2 | – | – | – | CCCCCCCCCCCCCCCC(=O)OCC(C)(COC(=O)CCCCCCCCCCCCCCC)C(=O)Oc1ccc(CC(=O)OCCSSCCOC(=O)NCCN(CC)CC)cc1 [Example 32] | 8.77E+07 RLU | gene expression activity compared to Comparative Example [4]: superior gene expression activity
6.4 | 0.067 | 97 nm | −2.5 mV | CCCCCCCCCCCCCCCCC(CCCCCCCCCCCCCCCC)C(=O)Oc1ccc(CC(=O)OCCSSCCN(C)C)cc1 [Example 16] | – | –
– | 0.078 | 90 nm | −3.0 mV | CCCCCCCCCCCCCCC(CCCCCCCCCCCCCC)C(=O)Oc1ccc(CC(=O)OCCSSCCOC(=O)CN(C)C)cc1 [Example 3] | – | –
5.7 | – | – | – | CCCCCCCCCCCCCCCCC(CCCCCCCCCCCCCCCC)C(=O)Oc1ccc(CC(=O)OCCSSCCOC(=O)NCCN(CCCC)CCCC)cc1 [Example 27] | 9.60E+05 RLU | –
7.1 | – | – | – | CCCCCCCCCCCCCCCCCC(=O)OCC(C)(COC(=O)CCCCCCCCCCCCCCCCC)C(=O)Oc1ccc(CC(=O)OCCSSCCOC(=O)NCCN(CC)CC)cc1 [Example 33] | 5.38E+06 RLU | –
7.3 | – | – | – | CCCCCCCC/C=C\CCCCCCCC(=O)Oc1ccc(CC(=O)OCC(C)(COC(=O)Cc2ccc(OC(=O)CCCCCCC/C=C\CCCCCCCC)cc2)C(=O)OCCSSCCOC(=O)NCCN(CC)CC)cc1 [Example 42] | 3.62E+07 RLU | gene expression activity compared to Comparative Example [4]: superior gene expression activity
